Assay results reported in patent publication US7314959B2, “Amino thiol compounds and compositions for use in conjunction with cancer therapy” (Wisconsin Alumni Research Foundation, priority 2003, dated 2008).
Where two headings read alike, the source gives them in different places.

Experiments:
[1] = test system: primary, diploid fibroblasts isolated from human skin; experiment: Growth inhibition of primary diploid human skin fibroblasts; type: cell-based; details: 50% inhibition of human skin fibroblast growth
Description: The in vitro growth inhibitory effects of certain of the chemoprotective polyamines of the invention were measured using primary, diploid fibroblasts isolated from human skin.

DNA = DNA binding/precipitation from solution; details: Expt. 1; read-out: DNA Bind/ppt. IC50 (uM), Expt. 1
Excerpt: The chemoprotective polyamines provided herein are also able to bind, denature and precipitate DNA from solution. As the skilled artisan will appreciate, as the concentration of polyamine is increased, there is a point where polyamine binding to helical B-DNA induces single-stranded ‘bubbles’ and conversion to other forms of DNA structure, such as Z-DNA (Feuerstein, B. et al., Nuc. Acids Res. 17:6883-6892, 1989; Basu, H. and Marton, L., Biochem. J. 244:243-246, 1987), as well as precipitating the DNA from solution.

[2] = test system: p21 protein in 23SK human skin cells; experiment: p21 induction by western analysis; type: cell-based; details: 23SK cells, 30 hr exposure
Description: FIGS. 3A and 3B illustrate the level of induced p21 protein seen in diploid human fibroblasts after a 30 hr exposure to each of the indicated chemoprotective polyamines. […] In these experiments, the 23SK human skin cells were exposed for 30 hr to an “IC80” dose of each of the indicated chemoprotective polyamines and then lysed. Cell extracts were then prepared in order to measure p21 levels by western analysis (FIG. 3A).
FIG. 3 illustrates that chemoprotective polyamines are able to induce expression of the negative cell cycle regulatory protein, p21, after exposing the human skin cells to the polyamine molecules. […] In these experiments, the 23SK human skin cells were exposed for 30 hr to an “IC80” dose of each of the indicated chemoprotective polyamines and then lysed. Cell extracts were then prepared in order to measure p21 levels by western analysis (FIG. 3A). Although the ability of modified polyamines to induce p21 is known in the literature (Kramer, D. et al., Cancer Res. 59:1278-1286, 1999), it is a novel aspect of this invention that those chemoprotective polyamines with longer aliphatic “arms” were better able to induce expression of p21 as shown in FIG. 4.

23SK skin cells = experiment: Flow cytometry cell cycle distribution; type: cell-based, human; details: IC80 dose
Excerpt: FIGS. 5A-5D are cell histograms showing the results from flow cytometry analysis of chemoprotective polyamine-treated 23SK skin cells.
In FIG. 5, cell histograms showing the results from flow cytometry analysis of chemoprotective polyamine-treated 23SK skin cells are shown. […] The transient nature of the cell cycle block induced by chemoprotective polyamines is believed to be an important aspect of their efficacy, i.e., their ability to block cell cycle progression in stem cells during the course of chemo- or radiotherapy, and the resumption of normal stem cell division after a given cancer therapy course has been completed.

[3] = test system: Cytoxan-induced alopecia in rat pups; experiment: Cytoxan-induced alopecia in rat pups; type: in vivo
Description: Induction of alopecia by cytoxan (CTX). Lactating Sprague Dawley mother rats with rat pups were purchased from Harlan Sprague Dawley (Indianapolis, Ind.). The mother rats were given food and water ad libitum. The rats pups were tested in the model of chemotherapy-induced alopecia described by Hussein A. M. et al., Science: 249, 1564 (1990). Cytoxan (CTX), a chemotherapeutic widely used in the treatment of cancer, was used to induce alopecia in the rats. A common side effect of cytoxan treatment in patients is alopecia. Lyophilized vials of Cytoxan were obtained from Mead-Johnson. To produce CTX-induced alopecia, 11 day old rat pups, which are at the peak of coat growth, were injected i.p. with 30-35 μg of CTX/gm body weight. CTX was dissolved in water. By day 18 of life, the animals have shed virtually 100% of their coat leaving bare skin on their backs. Thus, topical application of protective drugs to the animal's back prior to the CTX insult provides a suitable test for prevention of chemotherapy-induced alopecia. A separate alopecia assay was also developed in which whole-body irradiation on day 11 of life was used as the insult. This assay is described in further detail in Example 12 which follows.
In the earliest studies with chemoprotective polyamines, the molecules were prepared in a topical delivery vehicle consisting of from 50-70% ethanol in water, depending on the solubility of the compound. The compounds in ethanol/water solution from 50-150 µl in volume were topically administered to the backs of the pups once per day before and after CTX challenge. Using a micropipette, the formulation was applied to an approximately 2 cm2 section of skin on the backs of the rat pups. Specifically, the pups were treated once daily for the 4-5 days before CTX challenge, once on the day of CTX challenge and once daily for 5 days afterwards. Control groups consisted of pups receiving only delivery vehicle. […]
In the earliest studies with chemoprotective polyamines, hair loss was evaluated using a modified alopecia-scoring index described by Chen G. et al., Int. […] In the later studies with aminothiols a simpler scoring scale was adopted in which coat density was scored on a 0-100 scale as “% of normal coat density.”
Method: To assess the ability of topical treatments to prevent Cytoxan-induced alopecia we used a published protocol (Hussein et al., Science. 249(4976):1564-6, 1990) in which 11 day old neonate rat pups (Sprague-Dawley) receive a total of 6 topical skin treatments of active agent(s) during the 5 hr before and 2 hr after a single ip dose of Cytoxan (32 ug/gm b.w.). […] The density of the rat coats in the topical treatment area was scored on day 18 of life for animals injected with Cytoxan.

[4] = test system: radiation-induced dermatitis on backs of rats; experiment: Radiation-induced dermatitis in rat skin model; type: in vivo; details: 20 mM epinephrine; vehicle 0:95:5; cage 480; 8.7 Gy
Description: To determine efficacy of chemoprotective polyamines in preventing radiation-induced dermatitis, adult rats were topically treated with the compounds before and after radiation treatment. Rats were exposed to medically relevant levels of radiation that could induce clinical radiation dermatitis. Sprague Dawley rats (Harlan Spraque Dawley) at 4-6 weeks-old were anesthetized with sodium pentobarbital at 40 mg/kg body weight (Sigma, St. Louis, Mo.) prior to radiation exposure. A defined area (1.5×2 cm) on the backs of rats was irradiated using a Mark I, Model 30, Cs 137 irradiator (J. L. Sheppard & Associates). Before topical drug treatment or irradiation, the backs of the rats were clipped using an Oster clipper at the closest setting. The rest of the body was protected from radiation exposure using a lead shield (2.5 cm thick). A dose response study was initially performed to reproduce relevant dermatitis that matched the Grade (I-IV) scale used to score the severity of radiation-induced dermatitis in humans. The severity of the dermatitis was scored 12-13 days post-irradiation at the peak of the dermal inflammation. […] Radiation dermatitis of Grade II-III was considered most clinically relevant, so a radiation dose of 8.7 Gy was typically used in the rats. The clipped back region on the rats was treated topically with aminothiol in delivery vehicle four times in the two hours immediately preceding irradiation (at −2 hr, −1 hr, −30 min, and −10 min; irradiation was at 0 min
The polyamines or amino thiols were prepared in a delivery vehicle, consisting of ethanol:propylene glycol:water, ranging from 0:95:5 to 50:30:20 depending upon the solubility characteristics of the topical molecule, and the degree of dermal penetration desired. A vehicle composed of an emulsion formed by sonication of ‘nonionic liposomes’ and isopropyl myristate was also used (Jayaraman, S. et al., J. Pharm. Sci. 85:1082-1084, 1996). In a commonly used protocol, 220 μl of topical drug/vehicle was applied to an area ˜2 cm×3 cm on the back in the 2 hr just prior to irradiation. Rats treated with only the delivery vehicle served as controls. Twelve to thirteen days post-radiation, the rats were evaluated for dermatitis within the irradiated area. In early studies, a modified scoring scale described by Masuda K. et al., Int. J. Radiation Oncol. Biol. Phys: 12, 1645 (1986) was used, and in later studies, including those described here, a simplified scoring system was used in which the percentage of the irradiated, rectangular field covered with scrab material was estimated between 0 and 100% to provide scores on a scale between 0 and 100.
This example relates to the use of a rat skin model to evaluate the efficacy of two amino thiol compounds in preventing radiation-induced dermatitis. To test whether topically-applied aminothiols could prevent the radiodermatitis caused by external beam radiotherapy, the rodent model described in Example 3 was slightly modified. Briefly, the radiodermatitis model involved: • i) shaving the backs of 6-7 week old rats or mice; • ii) applying four topical doses of aminothiol in a delivery vehicle composed of ethanol:propylene glycol (PG):water in the 2 hr prior to irradiation; • iii) irradiating a small, 3 cm^2 (1.5×2 cm) area on the animal's back (through a window in a lead plate) with 8.7 Gy of γ radiation from a Cs^137 source; and • iv) scoring the severity of the dermatitis 12-13 days later, at the peak of the inflammatory skin reaction. Radiodermatitis severity was scored by estimating the percentage of the irradiated field that was covered by scrab material.
Methods: Treatments were applied as described in Example 6.

[5] = test system: radiation-induced alopecia in 11 day old rat pups; details: vehicle 50:25:25
Description: In some cases, topical vasoconstrictors may be used to reduce the severity of cancer therapy side-effects. […] Because cysteamine might have been toxic if distributed systemically at high concentrations in animals, a vasoconstrictor, in this case epinephrine (epinephrine-HCl, Sigma Chemical, 20 mM in topical 0:95:5 vehicle; ethanol:PG:water) was topically co-applied with cysteamine in an effort to prevent any potential uptake of the small aminothiol by skin vasculature. […] These initial experiments were done using a rat model where whole-body radiation is used to induce alopecia. This protocol is a variation of the Cytoxan-induced alopecia protocol described in Example 2. Here, 11 day old rat pups receive four topical treatments to their backs in the two hour period (at −2 hr, −1 hr, −30 min, −10 min) just prior to receiving whole-body irradiation (3.65 min) in a Cs137 irradiator. […] The topical vehicle varies from 0:95:5 (ethanol:PG:water) to 50:30:20, depending upon the solubility and concentration of the particular aminothiol. […] Following irradiation, the animals are housed with lactating mothers for 9 days and protection from radiation-induced alopecia within the topically-treated area is scored on day 20 of life. Protection is scored as the percentage of coat density seen in unirradiated rats.
Here, epinephrine-HCl (FW:220) was dissolved in an ethanol:propylene glycol:water delivery vehicle and was applied four times in the two hours just prior to irradiating the 11 day old rat pups. The animals were then housed with lactating mothers until day 20 of life when the degree of protection conferred by the topical epinephrine was scored.

CCNCCCCNCC=C(CNCC)CNCCCCNCC [PrC-110]
IC50 ([1]; Expt. 1, read-out: IC50 (uM), Expt. 1): 1680 µM | IC50 ([1]; Expt. 2, read-out: IC50 (uM), Expt. 2): 809 µM | IC50 (DNA): 270 µM | p21 fold-induction at IC80 Dose [2]: 2.91 fold | Cell Cycle Distribution At IC80 Dose (%) G1 (23SK skin cells; G1): 60% | Cell Cycle Distribution At IC80 Dose (%) G2/M (23SK skin cells; G2/M): 14% | Cell Cycle Distribution At IC80 Dose (%) S (23SK skin cells; S): 26% | protection against Cytoxan-induced alopecia ([3]; topical, alcohol:water vehicle, once per day five days before and five days after single systemic Cytoxan dose): excellent efficacy

Oc1ccc(/C=C/c2cc(O)cc(O)c2)cc1 [Resveratrol, trihydroxy-trans-stilbene, reference compound]
Alopecia Score (% Normal Coat Density in Topical Treatment Area) ([3]; Resveratrol 5 umol/day alone, ip Cytoxan 32 ug/gm b.w., Experiment 564-567): 5%

CNC[C@H](O)c1ccc(O)c(O)c1 [epinephrine]
Dermatitis Score (% of irradiated field free of scab material) [4]: 20 ± 8% | Alopecia Score (% Normal Coat Density in Topical Treatment Area) ([5]; 20 mM epinephrine, 3.65 min γ irradiation (Cs137), Experiment 647-650): 10% | Alopecia Score (% Normal Coat Density in Topical Treatment Area) ([5]; 100 mM epinephrine, 3.65 min γ irradiation): 35 ± 19% | Alopecia Score (% Normal Coat Density in Topical Treatment Area) ([5]; 500 mM epinephrine, 3.65 min γ irradiation): 43 ± 17% | Alopecia Score (% Normal Coat Density in Topical Treatment Area) ([5]; 1000 mM epinephrine, 3.65 min γ irradiation): 94 ± 6%
